Laboratory results published in the supplement of paper PMC10307832.

Experiments:
Experiment in all cases: relative viability (nuclei count vs DMSO), 5 days (fraction); higher = more cells survive
R406 + Palbociclib = compound: COc1cc(Nc2ncc(F)c(Nc3ccc4c(n3)NC(=O)C(C)(C)O4)n2)cc(OC)c1OC [R406] + CC(=O)c1c(C)c2cnc(Nc3ccc(N4CCNCC4)cn3)nc2n(C2CCCC2)c1=O [Palbociclib] (partner 0.5 µM)
Outline: (§1)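 A single step with final 0.05% Triton X-100, 1% formaldehyde and 1 ug/ml Hoechst fixed the cells and stained nuclei 5 days after treatment. Lung cancer cell lines in 1536-well plates had been treated by pin tool the day after seeding with one drug alone or a fixed anchor-drug dose plus five library-drug doses (not always all listed) in √10 steps, and nuclei were counted on 4× images. Relative viability is the ratio of nuclei in treated wells to nuclei in vehicle wells, taken as the median of duplicate plates.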

R406 + Navitoclax = compound: COc1cc(Nc2ncc(F)c(Nc3ccc4c(n3)NC(=O)C(C)(C)O4)n2)cc(OC)c1OC [R406] + CC1(C)CCC(c2ccc(Cl)cc2)=C(CN2CCN(c3ccc(C(=O)NS(=O)(=O)c4ccc(N[C@H](CCN5CCOCC5)CSc5ccccc5)c(S(=O)(=O)C(F)(F)F)c4)cc3)CC2)C1 [Navitoclax] (partner 0.5 µM)
Outline: as §1

Daporinad + Crizotinib = compound: O=C(/C=C/c1cccnc1)NCCCCC1CCN(C(=O)c2ccccc2)CC1 [Daporinad] + C[C@@H](Oc1cc(-c2cnn(C3CCNCC3)c2)cnc1N)c1c(Cl)ccc(F)c1Cl [Crizotinib] (partner 1 µM)
Outline: as §1

Daporinad + Linsitinib = compound: O=C(/C=C/c1cccnc1)NCCCCC1CCN(C(=O)c2ccccc2)CC1 [Daporinad] + C[C@]1(O)C[C@@H](c2nc(-c3ccc4ccc(-c5ccccc5)nc4c3)c3c(N)nccn32)C1 [Linsitinib] (partner 1 µM)
Outline: as §1

Row | Cell Line | relative viability (R406 + Palbociclib; first compound 0.08 µM) | relative viability (R406 + Palbociclib; first compound 0.253 µM) | relative viability (R406 + Palbociclib; first compound 0.8 µM) | relative viability (R406 + Palbociclib; first compound 2.53 µM) | relative viability (R406 + Palbociclib; first compound 8 µM) | relative viability (R406 + Navitoclax; first compound 0.08 µM) | relative viability (R406 + Navitoclax; first compound 0.253 µM) | relative viability (R406 + Navitoclax; first compound 0.8 µM) | relative viability (R406 + Navitoclax; first compound 8 µM) | relative viability (Daporinad + Crizotinib; first compound 0.0005 µM) | relative viability (Daporinad + Crizotinib; first compound 0.001581 µM) | relative viability (Daporinad + Crizotinib; first compound 0.005 µM) | relative viability (Daporinad + Crizotinib; first compound 0.01581 µM) | relative viability (Daporinad + Linsitinib; first compound 0.0005 µM) | relative viability (Daporinad + Linsitinib; first compound 0.001581 µM) | relative viability (Daporinad + Linsitinib; first compound 0.005 µM) | relative viability (Daporinad + Linsitinib; first compound 0.01581 µM) | relative viability (R406 + Navitoclax; first compound 2.53 µM)
1 | HCC-15 | 0.818 | 0.827 | 0.801 | 0.728 | 0.594 | 0.732 | 0.77 | 0.781 | 0.509 | 0.785 | 0.853 | 0.907 | 0.831 | 0.79 | 0.943 | 0.926 | 0.928 | 
2 | HCC-44 | 0.945 | 0.982 | 0.858 | 1.02 | 1.16 | 0.915 | 1.04 | 1.05 | 0.316 | 0.768 | 0.787 | 0.899 | 0.747 | 0.655 | 0.635 | 0.762 | 0.714 | 1.04
3 | HCC-78 | 0.457 | 0.525 | 0.501 | 0.467 | 0.427 | 0.729 | 0.899 | 0.876 | 0.43 | 0.333 | 0.362 | 0.331 | 0.428 | 0.541 | 0.619 | 0.767 | 0.921 | 0.508
4 | HCC-366 | 0.36 | 0.465 | 0.387 | 0.262 | 0.0616 | 0.855 | 1.18 | 1.16 | 0.663 | 0.696 | 0.628 | 0.864 | 0.634 | 0.687 | 0.753 | 0.87 | 0.887 | 
5 | IA-LM |  |  |  |  |  | 0.799 | 1.03 | 0.946 | 0.843 | 0.734 | 0.917 | 1.05 | 0.82 | 0.531 | 0.866 | 0.437 | 0.553 | 1.02
6 | LCLC-103H | 0.45 | 0.507 | 0.529 | 0.46 | 0.319 |  |  |  |  | 1.08 | 1.03 | 1.14 | 1.09 | 1.01 | 1.2 | 1.16 | 1.21 | 
7 | NCI-H358 | 0.12 | 0.192 | 0.126 | 0.0867 | 0.0882 |  |  |  |  | 0.693 | 0.709 | 0.684 | 0.562 | 0.64 | 0.822 | 0.882 | 0.791 | 
8 | NCI-H522 | 1.11 | 0.916 | 0.969 | 0.899 | 0.719 |  |  |  |  |  |  |  |  |  |  |  |  | 
9 | NCI-H596 |  |  |  |  |  | 0.836 | 1.04 | 1.16 | 0.115 | 1.05 | 1.02 | 1.12 | 0.677 | 1.06 | 1.15 | 1.19 | 0.477 | 0.72
10 | NCI-H650 | 0.34 | 0.412 | 0.322 | 0.289 | 0.253 |  |  |  |  | 0.736 | 0.749 | 0.75 | 0.798 | 0.832 | 1.3 | 0.883 | 1.16 | 
11 | NCI-H661 | 0.398 | 0.411 | 0.382 | 0.42 | 0.322 |  |  |  |  | 0.975 | 0.998 | 1.04 | 0.52 | 0.488 | 0.555 | 0.561 | 0.405 | 
12 | NCI-H1299 |  |  |  |  |  | 1.01 | 1.06 | 1.05 | 0.995 | 0.969 | 0.963 | 0.974 | 1.01 | 0.986 | 1.14 | 0.975 | 0.941 | 1.11
13 | NCI-H1395 | 0.609 | 0.663 | 0.652 | 0.47 | 0.551 | 1.18 | 1.18 | 1.49 | 0.947 |  |  |  |  | 1.01 | 1.23 | 0.999 | 1.44 | 0.881
14 | NCI-H1563 |  |  |  |  |  |  |  |  |  | 0.85 | 0.857 | 0.772 | 0.623 | 1.29 | 1.21 | 1.07 | 0.739 | 
15 | NCI-H1648 | 0.276 | 0.275 | 0.301 | 0.296 | 0.303 |  |  |  |  |  |  |  |  |  |  |  |  | 
16 | NCI-H1650 | 0.337 | 0.345 | 0.396 | 0.117 | 0.0985 | 1.3 | 1.15 | 1.5 | 0.747 | 1.12 | 1.09 | 1 | 0.764 |  |  |  |  | 1.24
17 | NCI-H1703 |  |  |  |  |  | 1.17 | 1.05 | 1.23 | 0.149 | 0.872 | 0.669 | 0.655 | 0.435 | 0.77 | 1.27 | 0.996 | 0.626 | 0.189
18 | NCI-H1793 | 0.352 | 0.309 | 0.253 | 0.28 | 0.153 | 0.336 | 0.442 | 0.398 | 0.17 |  |  |  |  | 0.697 | 0.853 | 1.14 | 0.926 | 0.206
19 | NCI-H2170 | 0.379 | 0.393 | 0.452 | 0.264 | 0.419 | 0.524 | 0.54 | 0.662 | 0.516 | 1.19 | 0.723 | 1.2 | 1.27 |  |  |  |  | 0.294
20 | NCI-H2342 | 0.518 | 0.508 | 0.504 | 0.474 | 0.509 |  |  |  |  |  |  |  |  |  |  |  |  | 
21 | SW 900 | 0.471 | 0.559 | 0.518 | 0.617 | 0.096 |  |  |  |  |  |  |  |  |  |  |  |  | 
